48 compounds from the PolyMetriX glass transition set can be followed below.

Turning to `*C(=O)c1ccc(Oc2c(C)cc(-c3cc(C)c(Oc4ccc(C(=O)c5ccc6nc(*)ccc6c5)cc4)c(C)c3)cc2C)cc1` (repeat unit), the glass transition temperature came to 180.00 °C.

In the case of `*C(=O)c1ccc(Oc2ccc(-c3ccc(Oc4ccc(C(=O)c5ccc6c(c5)C(=O)N(c5ccc(Cc7ccc(N8C(=O)c9ccc(*)cc9C8=O)cc7)cc5)C6=O)cc4)cc3)cc2)cc1` (repeat unit), the glass transition temperature was 241.00 °C. With `*C(=O)c1ccc2c(c1)C(=O)N(c1c(C)cc(C(c3cccc(C(F)(F)F)c3)c3cc(C)c(N4C(=O)c5ccc(*)cc5C4=O)c(C)c3)cc1C)C2=O` (repeat unit), the glass transition temperature is 285.00 °C.

As for `*C(=O)c1ccc2c(c1)C(=O)N(c1ccc(C(c3ccc(N4C(=O)c5ccc(*)cc5C4=O)cc3)(C(F)(F)F)C(F)(F)F)cc1)C2=O` (repeat unit), the glass transition temperature is 308.03 °C. For `*C(=O)c1ccc2c(c1)C(=O)N(c1ccc(C(c3ccccc3)c3ccc(N4C(=O)c5ccc(*)cc5C4=O)cc3)cc1)C2=O` (repeat unit), the glass transition temperature is 282.00 °C. The result for `*C(=O)c1ccc2c(c1)C(=O)N(c1ccc(Cc3ccc(Cc4ccc(N5C(=O)c6ccc(*)cc6C5=O)cc4)cc3)cc1)C2=O` (repeat unit) reads 347.00 °C. The result for `*CC(O)COc1c(C)cc(C(C)(C)c2cc(C)c(O*)c(C)c2)cc1C` (repeat unit) reads 130.00 °C; that for `*CC(O)COc1c(C)cc(S(=O)(=O)c2cc(C)c(O*)c(C)c2)cc1C` (repeat unit), 152.50 °C; that for `*OP(=O)(Oc1ccc([N+](=O)[O-])cc1)Oc1c(C)cc(S(=O)(=O)c2cc(C)c(*)c(C)c2)cc1C` (repeat unit), 173.00 °C. In turn, `*OP(=O)(Oc1ccccc1)Oc1c(C)cc(S(=O)(=O)c2cc(C)c(*)c(C)c2)cc1C` (repeat unit) gave a glass transition temperature of 142.00 °C.

As for `*O[Si](C)(C)O[Si](C)(C)O[Si](C)(C)O[Si](C)(C)Oc1c(C)cc(-c2cc(C)c(*)c(C)c2)cc1C` (repeat unit), the glass transition temperature was -16.00 °C. Consider `*O[Si](C)(C)O[Si](C)(C)Oc1c(C)cc(-c2cc(C)c(*)c(C)c2)cc1C` (repeat unit), for which the glass transition temperature amounted to 55.00 °C. With `*Oc1c(C)cc(-c2cc(C)c(OC(=O)CCCCC(*)=O)c(C)c2)cc1C` (repeat unit) the figure was 108.00 °C; with `*Oc1c(C)cc(-c2cc(C)c(OC(=O)CCCCCC(*)=O)c(C)c2)cc1C` (repeat unit), 96.00 °C; with `*Oc1c(C)cc(C(C)(C)c2cc(C)c(OC(=O)CCCCC(*)=O)c(C)c2)cc1C` (repeat unit), 93.00 °C.

Compound `*Oc1c(C)cc(C(C)(C)c2cc(C)c(OC(=O)CCCCCC(*)=O)c(C)c2)cc1C` (repeat unit) gave a glass transition temperature of 84.00 °C.

The compound `*Oc1c(C)cc(C(c2cc(C)c(OC(*)=O)c(C)c2)(C(F)(F)F)C(F)(F)F)cc1C` (repeat unit) gave a glass transition temperature of 208.00 °C. The result for `*Oc1c(C)cc(C2(c3cc(C)c(OC(=O)c4cccc(C(*)=O)c4)c(C)c3)CCC3CCCCC3C2)cc1C` (repeat unit) reads 261.00 °C; that for `*Oc1c(C)cc(C2(c3cc(C)c(OC(=O)c4cccc(C(*)=O)c4)c(C)c3)c3ccccc3-c3ccccc32)cc1C` (repeat unit), 315.00 °C; that for `*Oc1c(C)cc(C2(c3cc(C)c(Oc4ccc(C(=O)c5ccc(*)cc5)cc4)c(C)c3)CCC3CCCCC3C2)cc1C` (repeat unit), 251.00 °C. In the case of `*Oc1c(C)cc(C2(c3cc(C)c(Oc4ccc(C(=O)c5cccc(C(=O)c6ccc(*)cc6)c5)cc4)c(C)c3)c3ccccc3-c3ccccc32)cc1C` (repeat unit), the glass transition temperature was determined as 229.00 °C. For `*Oc1ccc(C2(c3ccc(Oc4ccc(C(=O)Oc5c(C)cc(C(C)(C)c6cc(C)c(OC(=O)c7ccc(*)cc7)c(C)c6)cc5C)cc4)cc3)CCC(C(C)(C)C)CC2)cc1` (repeat unit), the glass transition temperature was 176.00 °C. With `*Oc1ccc(S(=O)(=O)c2ccc(Oc3c(C(C)C)cc(C(C)(C)c4cc(C(C)C)c(*)c(C(C)C)c4)cc3C(C)C)cc2)cc1` (repeat unit) the figure was 175.00 °C; with `*Oc1ccc(S(=O)(=O)c2ccc(Oc3c(C)cc(C(C)(C)c4cc(C)c(*)c(C)c4)cc3C)cc2C(O)(C(F)(F)F)C(F)(F)F)c(C(O)(C(F)(F)F)C(F)(F)F)c1` (repeat unit), 187.00 °C. The result for `*Oc1ccc(S(=O)(=O)c2ccc(Oc3c(C)cc(C(c4cc(C)c(*)c(C)c4)(C(F)(F)F)C(F)(F)F)cc3C)c(Br)c2)cc1Br` (repeat unit) reads 230.80 °C. The compound `*Oc1ccc(S(=O)(=O)c2ccc(Oc3c(C)cc(C(c4cc(C)c(*)c(C)c4)(C(F)(F)F)C(F)(F)F)cc3C)cc2)cc1` (repeat unit) came in with a glass transition temperature of 248.00 °C.

As to `*Oc1ccc(S(=O)(=O)c2ccc3cc(S(=O)(=O)c4ccc(Oc5c(C)cc(-c6cc(C)c(*)c(C)c6)cc5C)cc4)ccc3c2)cc1` (repeat unit), the glass transition temperature came out at 280.00 °C. The result for `*c1c(C)cc(-c2cc(C)c(N3C(=O)c4ccc(Oc5ccc(C(C)(C)c6ccc(Oc7ccc8c(c7)C(=O)N(*)C8=O)cc6)cc5)cc4C3=O)c(C)c2)cc1C` (repeat unit) reads 280.00 °C; that for `*c1c(C)cc(-c2cc(C)c(N3C(=O)c4cccc(Oc5c(C)cc(-c6cc(C)c(Oc7cccc8c7C(=O)N(*)C8=O)c(C)c6)cc5C)c4C3=O)c(C)c2)cc1C` (repeat unit), 327.00 °C; that for `*c1c(C)cc(C(c2cc(C(F)(F)F)cc(C(F)(F)F)c2)c2cc(C)c(N3C(=O)c4ccc(Oc5ccc6c(c5)C(=O)N(*)C6=O)cc4C3=O)c(C)c2)cc1C` (repeat unit), 281.90 °C.

Compound `*c1c(C)cc(Cc2cc(C)c(N3C(=O)c4ccc(Oc5c(C)cc(-c6cc(C)c(Oc7ccc8c(c7)C(=O)N(*)C8=O)c(C)c6)cc5C)cc4C3=O)c(C)c2)cc1C` (repeat unit) returned a glass transition temperature of 420.00 °C. For the compound `*c1cc(C(=O)OCCCC)cc(N2C(=O)CC(C3Cc4ccccc4C4C(=O)N(*)C(=O)C43)C2=O)c1` (repeat unit), the glass transition temperature turned out to be 219.00 °C. With `*c1cc(C(c2ccc(O)c(-n3c(=O)c4cc5c(=O)n(*)c(=O)c5cc4c3=O)c2)(C(F)(F)F)C(F)(F)F)ccc1O` (repeat unit) the figure was 350.00 °C; with `*c1cc(C)c(-c2c(C)cc(-n3c(=O)c4cc5c(=O)n(*)c(=O)c5cc4c3=O)cc2C)c(C)c1` (repeat unit), 353.00 °C. The result for `*c1cc(C)c(/N=C/c2ccc(OCc3ccccc3COc3ccc(/C=N/c4cc(C)c(N5C(=O)c6ccc7c8ccc9c%10c(ccc(c%11ccc(c6c7%11)C5=O)c%108)C(=O)N(*)C9=O)cc4C)cc3)cc2)cc1C` (repeat unit) reads 128.00 °C; that for `*c1cc(Oc2c(C)cc(-c3cc(C)c(Oc4cc(N5C(=O)c6ccc(-c7ccc8c(c7)C(=O)N(*)C8=O)cc6C5=O)cc(C(F)(F)F)c4)c(C)c3)cc2C)cc(C(F)(F)F)c1` (repeat unit), 281.10 °C.

Regarding `*c1ccc(C(=O)Oc2c(C)cc(C(c3cccnc3)c3cc(C)c(OC(=O)c4ccc(N5C(=O)CC(Nc6ccc(NC7CC(=O)N(*)C7=O)cc6)C5=O)cc4)c(C)c3)cc2C)cc1` (repeat unit), the glass transition temperature stood at 212.00 °C.

Turning to `*c1ccc(Oc2c(C)cc(-c3cc(C)c(Oc4ccc(N5C(=O)c6ccc(Oc7ccccc7Oc7ccc8c(c7)C(=O)N(*)C8=O)cc6C5=O)cc4C(F)(F)F)c(C)c3)cc2C)c(C(F)(F)F)c1` (repeat unit), the glass transition temperature turned out to be 270.00 °C. With `*c1ccc(Oc2c(C)cc(C(c3cc(C)c(Oc4ccc(-n5c(=O)c6cc7c(=O)n(*)c(=O)c7cc6c5=O)cc4)c(C)c3)c3cccc4ccccc34)cc2C)cc1` (repeat unit) the figure was 315.00 °C. As to `*c1ccc(Oc2c(C)cc(C(c3cccnc3)c3cc(C)c(Oc4ccc(N5C(=O)CC(Nc6ccc(NC7CC(=O)N(*)C7=O)cc6)C5=O)cc4)c(C)c3)cc2C)cc1` (repeat unit), the glass transition temperature is 229.00 °C. The result for `*c1ccc(Oc2ccc(C3(c4ccc(Oc5ccc(N6C(=O)c7ccc(Oc8c(C)cc(C(C)(C)c9cc(C)c(Oc%10ccc%11c(c%10)C(=O)N(*)C%11=O)c(C)c9)cc8C)cc7C6=O)cc5)cc4)CC4CCC3C4)cc2)cc1` (repeat unit) reads 265.00 °C. The compound `*c1ccc(Oc2ccc(N3C(=O)c4ccc(Oc5c(C)cc(-c6cc(C)c(Oc7ccc8c(c7)C(=O)N(*)C8=O)c(C)c6)cc5C)cc4C3=O)cc2)cc1` (repeat unit) yielded a glass transition temperature of 299.00 °C. For `*c1ccc(Oc2ccc(Oc3ccc(N4C(=O)c5ccc(Oc6c(C)cc(C(C)(C)c7cc(C)c(Oc8ccc9c(c8)C(=O)N(*)C9=O)c(C)c7)cc6C)cc5C4=O)cc3)c(C(C)(C)C)c2)cc1` (repeat unit), the glass transition temperature was found to be 244.00 °C.

With `*c1ccc2c(c1)C(=O)N(c1c(C(C)C)cc(C(c3ccccc3)(c3cc(C(C)C)c(N4C(=O)c5ccc(C(*)(C(F)(F)F)C(F)(F)F)cc5C4=O)c(C(C)C)c3)C(F)(F)F)cc1C(C)C)C2=O` (repeat unit), the glass transition temperature was determined as 274.00 °C. On to `*c1ccc2c(c1)C(=O)N(c1c(C)cc(-c3cc(C)c(N4C(=O)c5ccc(C(*)(C(F)(F)F)C(F)(F)F)cc5C4=O)c(C)c3)cc1C)C2=O` (repeat unit), for which the glass transition temperature is 370.50 °C. For `*c1ccc2c(c1)C(=O)N(c1c(C)cc(C(c3cc(C(F)(F)F)cc(C(F)(F)F)c3)c3cc(C)c(N4C(=O)c5ccc(C(*)(C(F)(F)F)C(F)(F)F)cc5C4=O)c(C)c3)cc1C)C2=O` (repeat unit), the glass transition temperature worked out at 288.00 °C.

The compound `*c1ccc2c(c1)C(=O)N(c1cc(C)c(-c3c(C)cc(N4C(=O)c5ccc(C(*)(C(F)(F)F)C(F)(F)F)cc5C4=O)cc3C)c(C)c1)C2=O` (repeat unit) registered a glass transition temperature of 346.00 °C. The compound `*c1cccc(N2C(=O)c3ccc(Oc4c(C)cc(-c5cc(C)c(Oc6ccc7c(c6)C(=O)N(*)C7=O)c(C)c5)cc4C)cc3C2=O)c1` (repeat unit) displayed a glass transition temperature of 295.00 °C.
